Activity calls are given as the source filed them. The rule behind the calls is not given here.

For test [1], the target named is Human immunodeficiency virus type 1 protease (Human immunodeficiency virus 1) (UniProt Q72874). The test can be described thus: Inhibition of HIV-1 protease at >100 uM after 1 hr by fluorescence assay. The following applies: dose microM >100, time 1.0 hrs.
The test system of test [2] is MDA-MB-231. As to the kind of experiment: Cytotoxicity against human MDA-MB-231 cells assessed as reduction in cell viability at >90 uM after 48 hrs. The test is classed as functional, cell-based. To be noted: dose microM >90, time 48.0 hrs.
In test [3] the test system is MCF7. The test can be described thus: Cytotoxicity against human MCF7 cells assessed as reduction in cell viability after 48 hrs. The test is classed as functional, cell-based.
The subject of test [4] is MDA-MB-231. The test can be described thus: Cytotoxicity against human MDA-MB-231 cells assessed as reduction in cell viability after 48 hrs. Format: functional, cell-based.
In test [5] the test system is MCF7. The test can be described thus: Cytotoxicity against human MCF7 cells assessed as reduction in cell viability at <90 uM after 48 hrs. The test is classed as functional, cell-based. The following applies: dose microM <90, time 48.0 hrs.
The target of test [6] is Human immunodeficiency virus type 1 protease (Human immunodeficiency virus 1) (UniProt Q72874). The test can be described thus: Inhibition of HIV-1 protease at <60 uM after 1 hr by fluorescence assay. The following applies: dose microM <60, time 1.0 hrs.

For the compound `COc1cc([C@H]2OC[C@H]3[C@@H]2CO[C@@H]3c2cc(OC)c(O)c(OC)c2)ccc1O`, the inhibition result in test [1] was “Active”.
Regarding `CC(=O)O[C@@H](c1ccc2c(c1)OCO2)[C@H]1COC(O)[C@@H]1[C@@H](OC(C)=O)c1ccc2c(c1)OCO2` (stereo partly specified), the outcome with MDA-MB-231 [2] and in the test with MCF7 [5] was inactive. Moreover, the inhibition result in test [1] was “Active”. Further, the outcome in the test with MCF7 [3] and in the test on MDA-MB-231 [4] was Active.
Take `CC(=O)O[C@H](c1ccc2c(c1)OCO2)[C@H]1COC(=O)[C@@H]1[C@H](OC(C)=O)c1ccc2c(c1)OCO2`: the outcome with MDA-MB-231 [2] and in the test on MCF7 [5] was inactive. Also, the inhibition entry in test [1] and in test [6] was “Active” in each case. Also, the outcome in the test on MCF7 [3] and in the test on MDA-MB-231 [4] was Active.
Take `CC(=O)N[C@H](C(=O)N[C@H](C(=O)N[C@@H](CC(C)C)[C@@H](O)CC(=O)N[C@@H](C)C(=O)N[C@@H](CC(C)C)[C@@H](O)CC(=O)O)C(C)C)C(C)C`: the result in the test with MDA-MB-231 [2] and in the test with MCF7 [5] was inactive.
For `CC(=O)O[C@H](c1ccc2c(c1)OCO2)[C@H]1COC(=O)[C@@H]1[C@H](O)c1ccc2c(c1)OCO2`, the outcome in the test with MDA-MB-231 [2] and in the test with MCF7 [5] was inactive. Further, the inhibition entry in test [1] was “Active”. Also, the outcome in the test on MCF7 [3] and with MDA-MB-231 [4] was Active.
With `O=C1OC[C@H](Cc2ccc3c(c2)OCO3)[C@H]1Cc1ccc2c(c1)OCO2`, the inhibition entry in test [1] and in test [6] was “Active” each time.
